Experimental data reported in patent US7273880B2, “Selective NPY (Y5) antagonists” (H. Lunbeck A/S, priority 1999, dated 2007).

Assays:
[1] = biological target: T1, human Y5 receptor (hNPY-5) (Homo sapiens, UniProt Q15761); experiment: Radioligand binding to membranes, cloned human Y5 receptor; conditions: cloned human NPY Y5 receptor, radioligand competition binding; Tables 1-3; read-out: Ki, nM hNPY-5
T1 construct: expressed in transfected cells; host or cells: mouse fibroblast LM(tk-) cells, e.g. L-hY5-7 (ATCC CRL-11995)
T1 sequence (Q15761 1-445): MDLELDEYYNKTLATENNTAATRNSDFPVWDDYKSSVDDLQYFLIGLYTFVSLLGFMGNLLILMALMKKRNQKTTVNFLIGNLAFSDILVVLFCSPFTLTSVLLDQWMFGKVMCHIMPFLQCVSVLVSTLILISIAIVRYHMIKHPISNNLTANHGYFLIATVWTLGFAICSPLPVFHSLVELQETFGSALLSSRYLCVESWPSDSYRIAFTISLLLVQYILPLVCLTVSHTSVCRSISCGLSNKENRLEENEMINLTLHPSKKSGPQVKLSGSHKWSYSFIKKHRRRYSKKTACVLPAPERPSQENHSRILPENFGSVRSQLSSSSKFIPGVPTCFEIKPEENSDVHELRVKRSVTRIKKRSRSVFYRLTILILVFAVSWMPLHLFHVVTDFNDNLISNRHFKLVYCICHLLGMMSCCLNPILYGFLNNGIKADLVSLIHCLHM
Protocol: (§1) Binding of the compounds of the present invention to human Y1, Y2, Y4, and Y5 receptors was evaluated using stably transfected 293 or LM(tk-) cells as described above. Stably transfected cell lines which may be used for binding assays include, for example, for the human Y1 receptor, 293-hY1-5 (deposited Jun. 4, 1996, under ATCC Accession No. CRL-12121), for the human Y2 receptor, 293-hY2-10 (deposited Jan. 27, 1994, under ATCC Accession No. CRL-11537), for the human Y4 receptor, L-hY4-3 (deposited Jan. 11, 1995, under ATCC Accession No. CRL-11779), and for human Y5 receptor, L-hY5-7 (deposited Nov. 15, 1995, under ATCC Accession No. CRL-11995). These cell lines were deposited with the American Type Culture Collection (ATCC), 10801 University Blvd., Manassas, Va. 20110-2209, U.S.A. under the provisions of the Budapest Treaty for the International Recognition of the Deposit of Microorganisms for the Purposes of Patent Procedure.
(§2) Membranes were harvested from COS-7 cells 48 hours after transient transfection. Adherent cells were washed twice in ice-cold phosphate buffered saline (138 mM NaCl, 8.1 mM Na2HPO4, 2.5 mM KCl, 1.2 mM KH2PO4, 0.9 mM CaCl2, 0.5 mM MgCl2, pH 7.4) and lysed by sonication in ice-cold sonication buffer (20 mM Tris-HCl, 5 mM EDTA, pH 7.7). Large particles and debris were cleared by low speed centrifugation (200×g, 5 min, 4° C.). Membranes were collected from the supernatant fraction by centrifugation (32,000×g, 18 min, 4° C.), washed with ice-cold hypotonic buffer, and collected again by centrifugation (32,000×g, 18 min, 4° C.). The final membrane pellet was resuspended by sonication into a small volume of ice-cold binding buffer (˜1 ml for every 5 plates: 10 mM NaCl, 20 mM HEPES, 0.22 mM KH2PO4, 1.26 mM CaCl2, 0.81 mM MgSO4, pH 7.4). Protein concentration was measured by the Bradford method (Bradford, 1976) using Bio-Rad Reagent, with bovine serum albumin as a standard. Membranes were held on ice for up to one hour and used fresh, or flash-frozen and stored in liquid nitrogen.
(§3) Membranes were prepared similarly from 293, LM(tk-), and NIH-3T3 cells. To prepare membranes from baculovirus infected cells, 2×10^7 Sf21 cells were grown in 150 mm tissue culture dishes and infected with a high-titer stock of hY5BB3. Cells were incubated for 2-4 days at 27° C., no CO2 before harvesting and membrane preparation as described above.
(§4) Membrane suspensions were diluted in binding buffer supplemented with 0.1% bovine serum albumin to yield an optimal membrane protein concentration so that ^125I-PYY (or alternative radioligand such as ^125I-NPY, ^125I-PYY3-36, or ^125I-[Leu^31Pro^34]PYY) bound by membranes in the assay was less than 10% of ^125I-PYY (or alternative radioligand) delivered to the sample (100,000 dpm/sample=0.08 nM for competition binding assays). ^125I-PYY (or alternative radioligand) and peptide competitors were also diluted to desired concentrations in supplemented binding buffer. Individual samples were then prepared in 96-well polypropylene microtiter plates by mixing 125I-PYY (25 μL) (or alternative radioligand), competing peptides or supplemented binding buffer (25 μL), and finally, membrane suspensions (200 μL). Samples were incubated in a 30° C. water bath with constant shaking for 120 min. Incubations were terminated by filtration over Whatman GF/C filters (pre-coated with 1% polyethyleneimine and air-dried before use), followed by washing with 5 mL of ice-cold binding buffer. Filter-trapped membranes were impregnated with MeltiLex solid scintillant (Wallac, Turku, Finland) and counted for ^125I in a Wallac Beta-Plate Reader. Alternatively, incubations were carried out in GF/C filter plates (pre-coated with 1% polyethyleneimine and air-dried before use), followed by vacuum filtration and three washes of 300 μL of ice-cold binding buffer. 50 μL of UltimaGold (Packard) scintillant were added and counted for ^125I in a Wallac MicroBeta Trilux. […]

[2] = biological target: hNPY-1,2,4 (human Y1, Y2, Y4 receptors); experiment: Radioligand binding to membranes, cloned human Y1, Y2 and Y4 receptors; conditions: one bound given for all three
Protocol: as §1, §2, §3, §4

Compound | Ki [1] [nM] | Ki [2] [nM] | melting point [°C]
CS(=O)(=O)NCCCCNc1nc2c(s1)CCCc1ccc(F)cc1-2 [Example 5, 1-Aza-9-fluoro-4,5-dihydro-2-(4-(methane-sulfonylamino)-butyl)amino-3-thia-benzo[e]azulene] | 19.8 | > 10000 | –
O=S(=O)(NCCCCNc1nc2c(s1)CCCc1ccc(F)cc1-2)c1ccccc1F [Example 7, 1-Aza-9-fluoro-2-(4-(2-fluorophenyl)sulfonylamino)-butylamino-4,5-dihydro-3-thia-benzo[e]azulene] | 23 | > 10000 | –
O=S(=O)(NCCCCCNc1nc2c(s1)CCCc1ccc(F)cc1-2)c1ccc(F)c(F)c1 [Example 17, 1-Aza-2-(5-(3,4-difluorophenyl)sulfonylamino)-pentylamino-9-fluoro-4,5-dihydro-3-thia-benzo[e]-azulene] | 11 | > 10000 | –
COc1ccc(S(=O)(=O)NCCCCCNc2nc3c(s2)CCCc2ccc(F)cc2-3)cc1 [Example 18, 1-Aza-9-fluoro-4,5-dihydro-2-(5-(4-methoxyphenyl)-sulfonylamino)pentylamino-3-thia-benzo[e]azulene] | 7.1 | > 10000 | –
CCN(CC)S(=O)(=O)NCCCCNc1nc2c(s1)CCCc1ccc(F)cc1-2 [Example 22, 1-Aza-2-(4-diethylaminosulfonylamino)butylamino-9-fluoro-4,5-dihydro-3-thia-benzo[e]azulene] | 2.9 | > 10000 | –
Cc1noc(C)c1S(=O)(=O)NCCCCCNc1nc2c(s1)CCCc1ccc(F)cc1-2 [Example 24, 1-Aza-9-fluoro-4,5-dihydro-2-(5-(3,5-dimethyl-isoxazol-4-yl)sulfonylamino)pentylamino-3-thia-benzo[e]azulene] | 3.5 | > 10000 | –
COc1ccc(C)cc1S(=O)(=O)NCCCCC(=O)Nc1nc2c(s1)CCCc1ccc(F)cc1-2 [Example 49, N1-(9-Fluoro-5,6-dihydro-4H-benzo[6,7]cyclohepta-[d][1,3]-thiazol-2-yl)-5-[(2-methoxy-5-methylphenyl)-sulfonyl]-aminopentanamide] | 2.9 | – | 70 to 75
CS(=O)(=O)NCCOCCNc1nc2c(s1)CCCc1ccc(F)cc1-2 [Example 57, 1-Aza-9-fluoro-4,5-dihydro-2-{2-(2-methylsulfonyl-amino)ethoxy}ethylamino-3-thia-benzo[e]azulene] | 66 | – | 159 to 162
CCS(=O)(=O)N[C@H]1CC[C@H](CNc2nc3c(s2)CCOc2cc(OC)ccc2-3)CC1 [Example 60, trans-N2-(4-Ethylsulfonylamino)cyclohexylmethyl-8-methoxy-4,5-dihydro-benzo[2,3]oxepino[4,5-d][1,3]thiazol-2-amine] | 31 | – | 170 to 172
O=S(=O)(N[C@H]1CC[C@H](CNc2nc3c(s2)CCCc2ccc(F)cc2-3)CC1)c1cccnc1 [Example 62, trans-1-Aza-9-fluoro-4,5-dihydro-2-{4-(3-pyridyl)sulfonylamino}cyclohexylmethylamino-3-thia-benzo[e]azulene] | 1.8 | – | 158 to 160
CCS(=O)(=O)N[C@H]1CC[C@H](CNc2nc3c(s2)CCOc2ccc(OC)cc2-3)CC1 [Example 64, trans-N2-(4-Ethylsulfonylamino)cyclohexylmethyl-9-methoxy-4,5-dihydro-benzo[2,3]oxepino[4,5-d][1,3]thiazol-2-amine] | 12.2 | – | 165 to 170

Next, values leading:

Ki [1] [nM] | Ki [2] [nM] | melting point [°C] | Compound
2.4 | > 10000 | – | CS(=O)(=O)NCCCCCNc1nc2c(s1)CCCc1ccc(F)cc1-2 [Example 10, 1-Aza-9-fluoro-4,5-dihydro-2-(5-(methylsulfonyl-amino)-pentyl)amino-3-thia-benzo [e]azulene]
6.1 | > 1000 | – | O=S(=O)(NCCCCCNc1nc2c(s1)CCCc1ccc(F)cc1-2)c1ccc(F)cc1F [Example 12, 1-Aza-9-fluoro-4,5-dihydro-2-(5-(2,4-difluoro-phenyl)sulfonylamino)pentylamino-3-thia-benzo[e]-azulene]
2.1 | > 10000 | – | CCN(CC)S(=O)(=O)NCCCCCNc1nc2c(s1)CCCc1ccc(F)cc1-2 [Example 14, 1-Aza-9-fluoro-4,5-dihydro-2-(5-(diethyl-aminosulfonyl-amino)pentyl)amino-3-thia-benzo[e]-azulene]
4.7 | > 10000 | – | O=S(=O)(Cc1ccccc1)NCCCCCNc1nc2c(s1)CCCc1ccc(F)cc1-2 [Example 16, 1-Aza-2-(5-benzylsulfonylamino)pentylamino-9-fluoro-4,5-dihydro-3-thia-benzo[e]azulene]
2.5 | > 10000 | – | CCS(=O)(=O)NCCCCCNc1nc2c(s1)CCCc1ccc(F)cc1-2 [Example 21, 1-Aza-9-fluoro-2-(5-ethylsulfonylamino)pentylamino-4,5-dihydro-3-thia-benzo[e]azulene]
8.3 | – | 220 to 224 | COc1ccc(C)cc1S(=O)(=O)N[C@H]1CC[C@H](CNc2nc3c(s2)CCOc2ccccc2-3)CC1 [Example 51, trans-1-Aza-4,5-dihydro-2-{4-(2-methoxy-5-methyl-phenyl)-sulfonylamino}cyclohexylmethylamino-6-oxa-3-thia-benzo[e]azulene]
162 | – | 65 to 70 | COc1ccc2c(c1)OCCc1sc(NC[C@H]3CC[C@H](NS(C)(=O)=O)CC3)nc1-2 [Example 61, trans-1-Aza-4,5-dihydro-8-methoxy-2-{4-methyl-sulfonyl-amino)cyclohexylmethylamino-6-oxa-3-thia-benzo [e]azulene]
22 | – | 224 to 225 | COc1ccc2c(c1)CCCc1sc(N[C@H]3CC[C@H](CNS(C)(=O)=O)CC3)nc1-2 [Example 72, trans-1-Aza-4,5-dihydro-8-methoxy-2-(4-methyl-sulfonylamino-methyl)cyclohexylamino-3-thia-benzo[e]azulene]
150 | – | 53 to 55 | CCCN(C=O)C[C@H]1CC[C@H](Nc2nc3c(s2)CCOc2ccccc2-3)CC1 [Example 85, N-{[4-(4,5-Dihydrobenzo[2,3]oxepino[4,5-d][1,3]-thiazol-2-ylamino)cyclohexyl]methyl}-N-propylformamide]
5.7 | – | 148 to 150 | CS(=O)(=O)NCc1ccc(Nc2nc3c(s2)CCCc2ccc(F)cc2-3)cc1 [Example 90, N-{4-[(9-Fluoro-5,6-dihydro-4H-benzo[6,7]cyclohepta-[d][1,3]thiazol-2-yl)amino]benzyl}methanesulfonamide]
